Literature values as cited in publication PMC12652113, “Fluorescent Albumin-Binding N-Propylbenzene Indolenine-Based Squaraines as Potential Candidates for Prostate Cancer Photodynamic Therapy Photosensitizers” (International Journal of Molecular Sciences, 2025).

Settings: in dimethylformamide; reference value used for the calculation; cited from earlier work

SMILES: [Zn+2].c1ccc2c(c1)-c1nc-2nc2[n-]c(nc3nc([n-]c4nc(n1)-c1ccccc1-4)-c1ccccc1-3)c1ccccc21 [Zinc phthalocyanine, zinc phthalocyanine]
- fluorescence quantum yield (ΦF) of the reference standard: 0.17
